Data as given in publication PMC3968014, “Design and Synthesis of a Library of Lead-Like 2,4-Bisheterocyclic Substituted Thiophenes as Selective Dyrk/Clk Inhibitors” (PLoS ONE, 2014).

Tests used:
Dyrk1B = molecular target: T1, Dyrk1B (Homo sapiens, UniProt Q9Y463); assay: Dyrk1B kinase assay (32P-ATP, Woodtide); assay type: biochemical; details: for IC50: 100 µM ATP; for inhibition at 5 µM: read-out: percentage of inhibition Dyrk1B
T1 construct: purchased Life Technologies PV4649 (LOT # 877059G)

CDK5 = molecular target: T2, CDK5 (Homo sapiens, UniProt Q00535); assay: Selectivity panel CDK5; assay type: biochemical; details: 5 µM inhibitor
T2 construct: purchased Life Technologies (Invitrogen SelectScreen); Dyrk1A, Dyrk2 and CK2α in-house or gifts

MST1 (STK4) = molecular target: T3, MST1 (STK4) (Homo sapiens, UniProt Q13043); assay: Selectivity panel MST1; assay type: biochemical; details: 5 µM inhibitor
T3 construct: purchased Life Technologies (Invitrogen SelectScreen); Dyrk1A, Dyrk2 and CK2α in-house or gifts
T3 sequence (Q13043 1-487): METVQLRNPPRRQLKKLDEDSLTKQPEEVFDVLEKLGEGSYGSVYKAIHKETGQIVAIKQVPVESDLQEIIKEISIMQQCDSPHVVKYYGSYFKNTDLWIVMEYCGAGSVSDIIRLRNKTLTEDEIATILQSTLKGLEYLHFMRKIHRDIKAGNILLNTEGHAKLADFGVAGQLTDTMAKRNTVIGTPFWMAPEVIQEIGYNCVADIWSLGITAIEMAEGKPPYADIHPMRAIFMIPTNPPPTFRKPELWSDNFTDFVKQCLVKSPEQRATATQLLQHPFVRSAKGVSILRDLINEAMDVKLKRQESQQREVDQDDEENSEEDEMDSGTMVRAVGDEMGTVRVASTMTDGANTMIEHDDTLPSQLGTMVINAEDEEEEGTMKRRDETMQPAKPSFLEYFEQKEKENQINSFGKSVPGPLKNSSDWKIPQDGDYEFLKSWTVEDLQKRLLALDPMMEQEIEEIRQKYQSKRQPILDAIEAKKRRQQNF

HIPK1 = molecular target: T4, HIPK1 (Homo sapiens, UniProt Q86Z02); assay: Selectivity panel HIPK1; assay type: biochemical; details: 5 µM inhibitor
T4 construct: purchased Life Technologies (Invitrogen SelectScreen); Dyrk1A, Dyrk2 and CK2α in-house or gifts

MLK1 = molecular target: T5, MLK1 (Homo sapiens, UniProt P80192); assay: Selectivity panel MLK1; assay type: biochemical; details: 5 µM inhibitor
T5 construct: purchased Life Technologies (Invitrogen SelectScreen); Dyrk1A, Dyrk2 and CK2α in-house or gifts

GSK3β = molecular target: T6, GSK3β (Homo sapiens, UniProt P49841); assay: Selectivity panel GSK3β; assay type: biochemical; details: 5 µM inhibitor
T6 construct: purchased Life Technologies (Invitrogen SelectScreen); Dyrk1A, Dyrk2 and CK2α in-house or gifts

PKCβ = molecular target: T7, PKCβ (Homo sapiens, UniProt P05771); assay: Selectivity panel PKCβ; assay type: biochemical; details: 5 µM inhibitor
T7 construct: purchased Life Technologies (Invitrogen SelectScreen); Dyrk1A, Dyrk2 and CK2α in-house or gifts

PRKACA (PKA) = molecular target: T8, PRKACA (PKA) (Homo sapiens, UniProt P17612); assay: Selectivity panel PRKACA; assay type: biochemical; details: 5 µM inhibitor
T8 construct: purchased Life Technologies (Invitrogen SelectScreen); Dyrk1A, Dyrk2 and CK2α in-house or gifts

AKT1 (PKB alpha) = molecular target: T9, AKT1 (PKB alpha) (Homo sapiens, UniProt P31749); assay: Selectivity panel AKT1; assay type: biochemical; details: 5 µM inhibitor
T9 construct: purchased Life Technologies (Invitrogen SelectScreen); Dyrk1A, Dyrk2 and CK2α in-house or gifts

U2OS osteosarcoma cells = assay: Caspase-3 Assay (Caspase-Glo 3/7); assay type: cell-based; details: starved U2OS cells, 48 hours, vs DMSO control
Description: U2OS osteosarcoma cells were seeded in a 96 well flat bottom plate (15*10^3 cells/well). […] The induction of caspase-3/7 activity was measured using the Promega Caspase-Glo 3/7 assay system (Promega, LOT 0000054568). The resulting luciferase reaction signals that are proportional to the caspase induction were measured in a POLARstar plate reader (BMG Labtech, Offenburg, Germany). […] Values obtained for different compound concentrations were compared using the two-sided Student's t test; levels of significance thus obtained are indicated by asterisks.

WEE1 = molecular target: T10, WEE1 (Homo sapiens, UniProt P30291); assay: Selectivity panel WEE1; assay type: biochemical; details: 5 µM inhibitor
T10 construct: purchased Life Technologies (Invitrogen SelectScreen); Dyrk1A, Dyrk2 and CK2α in-house or gifts

PRKD1 (PKC mu, PKD1) = molecular target: T11, PRKD1 (PKC mu, PKD1) (Homo sapiens, UniProt Q15139); assay: Selectivity panel PRKD1; assay type: biochemical; details: 5 µM inhibitor
T11 construct: purchased Life Technologies (Invitrogen SelectScreen); Dyrk1A, Dyrk2 and CK2α in-house or gifts

FYN = molecular target: T12, FYN (Homo sapiens, UniProt P06241); assay: Selectivity panel FYN; assay type: biochemical; details: 5 µM inhibitor
T12 construct: purchased Life Technologies (Invitrogen SelectScreen); Dyrk1A, Dyrk2 and CK2α in-house or gifts

ABL1 = molecular target: T13, ABL1 (Homo sapiens, UniProt P00519); assay: Selectivity panel ABL1; assay type: biochemical; details: 5 µM inhibitor
T13 construct: purchased Life Technologies (Invitrogen SelectScreen); Dyrk1A, Dyrk2 and CK2α in-house or gifts

AMPK A1/B1/G1 = molecular target: T14, AMPK A1/B1/G1 (Homo sapiens, UniProt Q13131); assay: Selectivity panel AMPK; assay type: biochemical; details: 5 µM inhibitor
T14 construct: purchased Life Technologies (Invitrogen SelectScreen); Dyrk1A, Dyrk2 and CK2α in-house or gifts

PASK = molecular target: T15, PASK (Homo sapiens, UniProt Q96RG2); assay: Selectivity panel PASK (CAMK); assay type: biochemical; details: 5 µM inhibitor; listed under CAMK
T15 construct: purchased Life Technologies (Invitrogen SelectScreen); Dyrk1A, Dyrk2 and CK2α in-house or gifts

RAF1 (cRAF) Y340D Y341D = molecular target: T16, RAF1 (cRAF) Y340D Y341D (Homo sapiens, UniProt P04049, Y340D/Y341D); assay: Selectivity panel RAF1; assay type: biochemical; details: 5 µM inhibitor
T16 construct: purchased Life Technologies (Invitrogen SelectScreen); Dyrk1A, Dyrk2 and CK2α in-house or gifts

RPS6KB1 (p70S6K) = molecular target: T17, RPS6KB1 (p70S6K) (Homo sapiens, UniProt P23443); assay: Selectivity panel RPS6KB1; assay type: biochemical; details: 5 µM inhibitor
T17 construct: purchased Life Technologies (Invitrogen SelectScreen); Dyrk1A, Dyrk2 and CK2α in-house or gifts

PRKCZ (PKC zeta) = molecular target: T18, PRKCZ (PKC zeta) (Homo sapiens, UniProt Q05513); assay: Selectivity panel PRKCZ; assay type: biochemical; details: 5 µM inhibitor
T18 construct: purchased Life Technologies (Invitrogen SelectScreen); Dyrk1A, Dyrk2 and CK2α in-house or gifts

MARK1 (MARK) = molecular target: T19, MARK1 (MARK) (Homo sapiens, UniProt Q9P0L2); assay: Selectivity panel MARK1; assay type: biochemical; details: 5 µM inhibitor
T19 construct: purchased Life Technologies (Invitrogen SelectScreen); Dyrk1A, Dyrk2 and CK2α in-house or gifts

IRAK4 = molecular target: T20, IRAK4 (Homo sapiens, UniProt Q9NWZ3); assay: Selectivity panel IRAK4; assay type: biochemical; details: 5 µM inhibitor
T20 construct: purchased Life Technologies (Invitrogen SelectScreen); Dyrk1A, Dyrk2 and CK2α in-house or gifts

PHKG2 = molecular target: T21, PHKG2 (Homo sapiens, UniProt P15735); assay: Selectivity panel PHKG2; assay type: biochemical; details: 5 µM inhibitor
T21 construct: purchased Life Technologies (Invitrogen SelectScreen); Dyrk1A, Dyrk2 and CK2α in-house or gifts

DYRK3 = molecular target: T22, DYRK3 (Homo sapiens, UniProt O43781); assay: Selectivity panel DYRK3; assay type: biochemical; details: 5 µM inhibitor
T22 construct: purchased Life Technologies (Invitrogen SelectScreen); Dyrk1A, Dyrk2 and CK2α in-house or gifts

RPS6KA1 (RSK1) = molecular target: T23, RPS6KA1 (RSK1) (Homo sapiens, UniProt Q15418); assay: Selectivity panel RPS6KA1; assay type: biochemical; details: 5 µM inhibitor
T23 construct: purchased Life Technologies (Invitrogen SelectScreen); Dyrk1A, Dyrk2 and CK2α in-house or gifts

CDK2/cyclin A = molecular target: T24, CDK2/cyclin A (Homo sapiens, UniProt P24941); assay: Selectivity panel CDK2/cyclin A; assay type: biochemical; details: 5 µM inhibitor
T24 construct: purchased Life Technologies (Invitrogen SelectScreen); Dyrk1A, Dyrk2 and CK2α in-house or gifts

MAP3K5 (ASK1) = molecular target: T25, MAP3K5 (ASK1) (Homo sapiens, UniProt Q99683); assay: Selectivity panel MAP3K5; assay type: biochemical; details: 5 µM inhibitor
T25 construct: purchased Life Technologies (Invitrogen SelectScreen); Dyrk1A, Dyrk2 and CK2α in-house or gifts

PIK3CA/PIK3R1 = molecular target: T26, PIK3CA/PIK3R1 (Homo sapiens, UniProt P42336); assay: Selectivity panel PIK3CA/PIK3R1; assay type: biochemical; details: 5 µM inhibitor
T26 construct: purchased Life Technologies (Invitrogen SelectScreen); Dyrk1A, Dyrk2 and CK2α in-house or gifts

SRC = molecular target: T27, SRC (Homo sapiens, UniProt P12931); assay: Selectivity panel SRC; assay type: biochemical; details: 5 µM inhibitor
T27 construct: purchased Life Technologies (Invitrogen SelectScreen); Dyrk1A, Dyrk2 and CK2α in-house or gifts

MINK1 = molecular target: T28, MINK1 (Homo sapiens, UniProt Q8N4C8); assay: Selectivity panel MINK1; assay type: biochemical; details: 5 µM inhibitor
T28 construct: purchased Life Technologies (Invitrogen SelectScreen); Dyrk1A, Dyrk2 and CK2α in-house or gifts

RET = molecular target: T29, RET (Homo sapiens, UniProt P07949); assay: Selectivity panel RET; assay type: biochemical; details: 5 µM inhibitor
T29 construct: purchased Life Technologies (Invitrogen SelectScreen); Dyrk1A, Dyrk2 and CK2α in-house or gifts

LYN A = molecular target: T30, LYN A (Homo sapiens, UniProt P07948); assay: Selectivity panel LYN A; assay type: biochemical; details: 5 µM inhibitor
T30 construct: purchased Life Technologies (Invitrogen SelectScreen); Dyrk1A, Dyrk2 and CK2α in-house or gifts

RIPK2 = molecular target: T31, RIPK2 (Homo sapiens, UniProt O43353); assay: Selectivity panel RIPK2; assay type: biochemical; details: 5 µM inhibitor
T31 construct: purchased Life Technologies (Invitrogen SelectScreen); Dyrk1A, Dyrk2 and CK2α in-house or gifts

T6 sequence (P49841 whole entry): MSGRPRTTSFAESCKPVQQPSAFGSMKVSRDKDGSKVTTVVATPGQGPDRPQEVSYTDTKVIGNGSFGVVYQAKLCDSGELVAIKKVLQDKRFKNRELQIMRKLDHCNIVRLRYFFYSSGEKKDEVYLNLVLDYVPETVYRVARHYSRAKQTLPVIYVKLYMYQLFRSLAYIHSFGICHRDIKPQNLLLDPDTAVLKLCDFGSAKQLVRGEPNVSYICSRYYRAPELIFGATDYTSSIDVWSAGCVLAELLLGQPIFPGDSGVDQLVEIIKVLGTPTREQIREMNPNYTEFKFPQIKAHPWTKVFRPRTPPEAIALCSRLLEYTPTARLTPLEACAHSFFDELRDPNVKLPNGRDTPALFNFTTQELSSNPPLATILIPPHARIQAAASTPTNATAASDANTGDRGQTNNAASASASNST
T7 sequence (P05771 whole entry): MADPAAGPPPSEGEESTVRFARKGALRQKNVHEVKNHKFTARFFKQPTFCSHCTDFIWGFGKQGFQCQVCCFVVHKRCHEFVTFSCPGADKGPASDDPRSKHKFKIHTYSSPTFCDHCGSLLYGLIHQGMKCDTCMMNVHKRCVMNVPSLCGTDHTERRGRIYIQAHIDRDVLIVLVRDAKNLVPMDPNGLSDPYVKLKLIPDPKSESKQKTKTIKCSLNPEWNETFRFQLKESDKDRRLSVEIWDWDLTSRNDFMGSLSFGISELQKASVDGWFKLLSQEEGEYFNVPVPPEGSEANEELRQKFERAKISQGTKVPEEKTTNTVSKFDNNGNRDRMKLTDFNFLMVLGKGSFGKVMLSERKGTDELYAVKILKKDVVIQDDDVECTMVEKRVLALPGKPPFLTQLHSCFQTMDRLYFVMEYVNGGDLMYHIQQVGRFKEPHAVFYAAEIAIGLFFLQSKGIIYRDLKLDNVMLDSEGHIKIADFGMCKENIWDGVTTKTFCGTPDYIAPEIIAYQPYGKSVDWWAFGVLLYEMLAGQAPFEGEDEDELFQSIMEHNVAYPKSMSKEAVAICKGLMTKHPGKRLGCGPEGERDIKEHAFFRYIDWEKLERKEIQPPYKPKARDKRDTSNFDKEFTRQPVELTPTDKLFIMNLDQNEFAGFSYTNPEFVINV
T2 sequence (Q00535 whole entry): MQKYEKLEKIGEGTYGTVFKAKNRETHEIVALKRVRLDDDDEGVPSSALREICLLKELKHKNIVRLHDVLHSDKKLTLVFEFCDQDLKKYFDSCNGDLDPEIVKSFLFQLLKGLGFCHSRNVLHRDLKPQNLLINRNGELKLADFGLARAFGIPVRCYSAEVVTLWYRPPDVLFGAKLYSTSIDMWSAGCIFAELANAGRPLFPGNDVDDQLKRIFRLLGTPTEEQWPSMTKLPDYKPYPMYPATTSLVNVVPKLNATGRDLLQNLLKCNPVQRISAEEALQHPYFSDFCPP
T2 sequence (Q15078 whole entry partner): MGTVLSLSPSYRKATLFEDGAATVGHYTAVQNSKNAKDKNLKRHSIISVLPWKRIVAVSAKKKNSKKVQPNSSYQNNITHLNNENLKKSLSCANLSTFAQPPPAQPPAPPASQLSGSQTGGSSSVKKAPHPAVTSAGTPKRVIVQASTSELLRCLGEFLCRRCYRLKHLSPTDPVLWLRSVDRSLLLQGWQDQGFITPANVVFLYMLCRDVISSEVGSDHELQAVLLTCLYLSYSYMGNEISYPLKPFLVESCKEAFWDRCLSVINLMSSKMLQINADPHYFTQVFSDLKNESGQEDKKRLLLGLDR
T4 sequence (Q86Z02 whole entry): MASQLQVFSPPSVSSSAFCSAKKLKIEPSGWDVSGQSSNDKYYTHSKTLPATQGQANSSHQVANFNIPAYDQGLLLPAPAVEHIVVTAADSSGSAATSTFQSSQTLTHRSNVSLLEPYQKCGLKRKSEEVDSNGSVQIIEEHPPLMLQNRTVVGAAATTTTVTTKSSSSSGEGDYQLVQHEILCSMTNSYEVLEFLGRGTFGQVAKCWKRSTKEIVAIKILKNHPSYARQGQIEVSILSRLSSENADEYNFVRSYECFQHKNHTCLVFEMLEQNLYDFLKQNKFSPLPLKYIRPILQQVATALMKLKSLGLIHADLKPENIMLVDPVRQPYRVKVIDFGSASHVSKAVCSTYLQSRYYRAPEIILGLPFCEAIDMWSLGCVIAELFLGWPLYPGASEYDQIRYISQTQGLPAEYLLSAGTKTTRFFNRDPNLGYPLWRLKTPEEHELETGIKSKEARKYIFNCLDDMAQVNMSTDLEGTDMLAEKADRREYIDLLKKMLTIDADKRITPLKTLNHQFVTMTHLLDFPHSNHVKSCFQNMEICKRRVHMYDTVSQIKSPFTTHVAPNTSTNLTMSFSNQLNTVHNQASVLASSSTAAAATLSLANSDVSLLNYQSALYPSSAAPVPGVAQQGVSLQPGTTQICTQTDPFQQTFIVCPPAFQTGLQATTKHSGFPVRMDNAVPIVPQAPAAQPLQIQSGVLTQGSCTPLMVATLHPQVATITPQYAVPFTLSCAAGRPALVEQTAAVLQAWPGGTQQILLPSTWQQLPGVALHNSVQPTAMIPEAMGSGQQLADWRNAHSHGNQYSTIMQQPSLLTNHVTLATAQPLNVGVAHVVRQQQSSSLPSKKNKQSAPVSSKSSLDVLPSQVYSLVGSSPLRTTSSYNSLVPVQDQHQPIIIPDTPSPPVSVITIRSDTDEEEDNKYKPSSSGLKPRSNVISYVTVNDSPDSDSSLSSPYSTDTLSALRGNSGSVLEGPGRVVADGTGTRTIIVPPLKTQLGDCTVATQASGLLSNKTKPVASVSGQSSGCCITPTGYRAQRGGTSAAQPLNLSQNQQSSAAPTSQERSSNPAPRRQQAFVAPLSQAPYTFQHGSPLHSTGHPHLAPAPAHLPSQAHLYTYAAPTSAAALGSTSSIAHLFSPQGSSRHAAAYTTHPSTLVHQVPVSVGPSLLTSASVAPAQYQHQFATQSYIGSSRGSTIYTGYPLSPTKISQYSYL
T1 sequence (Q9Y463 whole entry): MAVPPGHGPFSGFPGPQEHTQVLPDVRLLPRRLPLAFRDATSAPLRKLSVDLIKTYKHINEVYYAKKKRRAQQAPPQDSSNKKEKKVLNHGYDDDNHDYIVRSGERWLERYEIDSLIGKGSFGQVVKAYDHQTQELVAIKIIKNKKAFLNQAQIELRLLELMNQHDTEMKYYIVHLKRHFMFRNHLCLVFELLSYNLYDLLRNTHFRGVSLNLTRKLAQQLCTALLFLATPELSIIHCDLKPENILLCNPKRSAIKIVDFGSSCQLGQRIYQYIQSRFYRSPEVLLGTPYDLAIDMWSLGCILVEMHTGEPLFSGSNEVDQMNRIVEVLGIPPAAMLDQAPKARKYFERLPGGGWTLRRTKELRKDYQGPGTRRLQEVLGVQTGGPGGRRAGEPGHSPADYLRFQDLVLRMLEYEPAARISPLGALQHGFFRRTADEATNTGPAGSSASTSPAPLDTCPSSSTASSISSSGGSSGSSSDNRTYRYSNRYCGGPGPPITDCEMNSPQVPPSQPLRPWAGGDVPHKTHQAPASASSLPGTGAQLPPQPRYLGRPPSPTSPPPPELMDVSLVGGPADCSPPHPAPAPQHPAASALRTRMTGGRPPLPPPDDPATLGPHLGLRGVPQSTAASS
T5 sequence (P80192 whole entry): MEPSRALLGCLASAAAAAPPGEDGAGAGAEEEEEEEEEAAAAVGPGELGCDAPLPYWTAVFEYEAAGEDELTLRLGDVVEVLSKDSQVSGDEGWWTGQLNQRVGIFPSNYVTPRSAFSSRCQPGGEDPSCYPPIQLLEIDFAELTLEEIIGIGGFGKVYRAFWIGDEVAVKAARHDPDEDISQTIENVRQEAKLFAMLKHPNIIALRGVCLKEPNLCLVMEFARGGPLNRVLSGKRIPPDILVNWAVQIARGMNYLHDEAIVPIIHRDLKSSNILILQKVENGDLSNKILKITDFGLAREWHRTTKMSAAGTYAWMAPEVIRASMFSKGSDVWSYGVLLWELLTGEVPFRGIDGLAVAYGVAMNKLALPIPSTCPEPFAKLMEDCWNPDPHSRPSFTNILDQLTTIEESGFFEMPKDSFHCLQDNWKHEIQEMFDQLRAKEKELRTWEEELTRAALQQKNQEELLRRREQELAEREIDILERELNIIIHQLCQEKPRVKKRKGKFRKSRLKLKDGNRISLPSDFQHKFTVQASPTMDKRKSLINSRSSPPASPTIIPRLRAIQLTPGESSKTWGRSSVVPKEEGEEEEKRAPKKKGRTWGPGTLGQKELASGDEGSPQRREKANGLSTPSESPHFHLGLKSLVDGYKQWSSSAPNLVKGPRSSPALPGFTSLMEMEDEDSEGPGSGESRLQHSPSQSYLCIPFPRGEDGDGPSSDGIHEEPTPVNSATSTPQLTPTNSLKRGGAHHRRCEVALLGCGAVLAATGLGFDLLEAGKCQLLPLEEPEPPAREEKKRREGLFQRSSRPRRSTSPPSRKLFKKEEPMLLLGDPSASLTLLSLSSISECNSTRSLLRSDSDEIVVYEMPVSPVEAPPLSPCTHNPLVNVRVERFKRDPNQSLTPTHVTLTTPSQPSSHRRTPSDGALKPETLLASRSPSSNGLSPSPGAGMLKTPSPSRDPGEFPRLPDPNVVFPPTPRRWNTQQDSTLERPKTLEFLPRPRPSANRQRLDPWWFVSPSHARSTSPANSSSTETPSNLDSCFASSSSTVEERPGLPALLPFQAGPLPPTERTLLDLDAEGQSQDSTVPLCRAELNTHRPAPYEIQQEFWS
T21 sequence (P15735 whole entry): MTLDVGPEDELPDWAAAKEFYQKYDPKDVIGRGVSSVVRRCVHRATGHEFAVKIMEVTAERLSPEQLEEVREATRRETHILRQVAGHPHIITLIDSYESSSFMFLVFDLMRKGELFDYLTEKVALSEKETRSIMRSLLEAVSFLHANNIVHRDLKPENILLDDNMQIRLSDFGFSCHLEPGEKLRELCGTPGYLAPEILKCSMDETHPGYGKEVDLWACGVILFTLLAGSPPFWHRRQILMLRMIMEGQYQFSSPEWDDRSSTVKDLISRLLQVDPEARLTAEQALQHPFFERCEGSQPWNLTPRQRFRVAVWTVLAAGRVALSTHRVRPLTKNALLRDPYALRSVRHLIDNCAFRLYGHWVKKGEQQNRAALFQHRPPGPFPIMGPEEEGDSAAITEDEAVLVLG

c1cncc(-c2csc(-c3cnco3)c2)c1 [Compound 33, 3-[5-(1,3-oxazol-5-yl)thiophen-3-yl]pyridine]
IC50 (Dyrk1B): 1 µM
inhibition at 5 µM (Dyrk1B): 83%
inhibition at 5 µM (CDK5): 23%
inhibition at 5 µM (MST1 (STK4)): 0%
inhibition at 5 µM (HIPK1): 7%
inhibition at 5 µM (MLK1): 0%
inhibition at 5 µM (GSK3β): 10%
inhibition at 5 µM (PKCβ): -18%

c1cncc(-c2csc(-c3cncnc3)c2)c1 [Compound 41, 5-[4-(pyridin-3-yl)thiophen-2-yl]pyrimidine]
IC50 (Dyrk1B): 1.8 µM
inhibition at 5 µM (Dyrk1B): 70%
inhibition at 5 µM (CDK5): 14%
inhibition at 5 µM (MST1 (STK4)): 2%
inhibition at 5 µM (HIPK1): 9%
inhibition at 5 µM (MLK1): 3%
inhibition at 5 µM (GSK3β): 14%
inhibition at 5 µM (PKCβ): -7%

c1cncc(-c2csc(-c3cncs3)c2)c1 [Compound 48, 3-[5-(1,3-thiazol-5-yl)thiophen-3-yl]pyridine]
inhibition at 5 µM (PRKACA (PKA)): 3%
inhibition at 5 µM (AKT1 (PKB alpha)): 3%
caspase-3/7 activity (U2OS osteosarcoma cells): clear increase
IC50 (Dyrk1B): 0.07 µM
inhibition at 5 µM (Dyrk1B): 100%
Kd (Dyrk1B; calculated with Cheng-Prussoff equation, KM ATP 59 µM): 0.026 µM
inhibition at 5 µM (CDK5): 44%
inhibition at 5 µM (WEE1): 10%
inhibition at 5 µM (PRKD1 (PKC mu, PKD1)): -5%
inhibition at 5 µM (FYN): 0%
inhibition at 5 µM (ABL1): 6%
inhibition at 5 µM (AMPK A1/B1/G1): -5%
inhibition at 5 µM (PASK): 27%
inhibition at 5 µM (RAF1 (cRAF) Y340D Y341D): 37%
inhibition at 5 µM (RPS6KB1 (p70S6K)): -4%
inhibition at 5 µM (PRKCZ (PKC zeta)): -25%
inhibition at 5 µM (MARK1 (MARK)): 1%
inhibition at 5 µM (IRAK4): -11%
inhibition at 5 µM (PHKG2): -11%
inhibition at 5 µM (DYRK3): 69%
inhibition at 5 µM (MST1 (STK4)): 9%
inhibition at 5 µM (RPS6KA1 (RSK1)): 4%
inhibition at 5 µM (CDK2/cyclin A): 33%
inhibition at 5 µM (MAP3K5 (ASK1)): 6%
inhibition at 5 µM (PIK3CA/PIK3R1): 12%
inhibition at 5 µM (HIPK1): 9%
inhibition at 5 µM (SRC): -4%
inhibition at 5 µM (MLK1): 17%
inhibition at 5 µM (GSK3β): 25%
inhibition at 5 µM (PKCβ): 1%
inhibition at 5 µM (MINK1): 19%
inhibition at 5 µM (RET): 1%
inhibition at 5 µM (LYN A): 13%
inhibition at 5 µM (RIPK2): 46%
